Experimental findings from PubChem BioAssay (NCI) are described below.

The structures appear in SMILES notation. Several values for one entry are separate records, joined by “and”; a condition that tells them apart may be missing. Equal values may be shown once.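 The compound was tested at five concentrations on cells cultured in 96-well plates, with a 48-hour exposure period. The concentration for 50% growth inhibition is given as GI50. TGI marks complete inhibition of growth.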

Test systems include P388 leukemia; P388/ADR leukemia; SN12K1 renal; RXF-631 renal.
Common to all, as to experiment: NCI tumour cell line growth inhibition, 48 h

In the case of `Cc1ccc(C(C)(C)C[P+](C)(c2ccccc2)c2ccccc2)cc1`, the values for the TGI in the assay with P388 leukemia, with P388/ADR leukemia and in the assay on SN12K1 renal were 12.3 µM, greater than 100 µM and greater than 90.7 µM, respectively.
With `[Cl][Pt+2][Cl].[NH-]C1CCCCC1[NH-]` (stereo not drawn), the TGI with P388 leukemia was 6.91 µM and 7.39 µM and 2.14 µM; in the assay on P388/ADR leukemia, 98.9 µM and > 100 µM and > 52.4 µM; in the assay on SN12K1 renal, greater than 100 µM. The GI50 in the assay with P388/ADR leukemia was 4.69 µM and 2.22 µM and 0.629 µM.
`Nc1cccc2c1C(=O)c1cccc(N)c1C2=O` yielded a TGI with RXF-631 renal greater than 100 µM.
